Common to all, as to assay: UV-visible dark absorbance spectrum of purified reconstituted rhodopsin
Format in all cases: binding

Experiment [1] has as its target T1, Eumaeus atala LWRh (LW opsin) (Eumaeus atala, UniProt A0A7T3U8W4).
T1 sequence (A0A7T3U8W4 1-381): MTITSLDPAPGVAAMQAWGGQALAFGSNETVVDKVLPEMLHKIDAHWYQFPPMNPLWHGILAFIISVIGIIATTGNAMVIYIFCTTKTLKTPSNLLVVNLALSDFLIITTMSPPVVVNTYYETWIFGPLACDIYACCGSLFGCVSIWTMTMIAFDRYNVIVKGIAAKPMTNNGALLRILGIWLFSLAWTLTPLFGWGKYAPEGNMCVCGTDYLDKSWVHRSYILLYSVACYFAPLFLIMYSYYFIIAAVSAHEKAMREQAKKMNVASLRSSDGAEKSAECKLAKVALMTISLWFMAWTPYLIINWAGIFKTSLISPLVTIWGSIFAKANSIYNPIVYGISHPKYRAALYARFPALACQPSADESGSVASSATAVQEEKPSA
To be noted: covalent, 40 uM 11-cis-retinal, figure legend prints 567 nm.

The target of experiment [2] is T2, Eumaeus atala UVRh (Eumaeus atala, UniProt A0A7T3U8H7).
T2 sequence (A0A7T3U8H7 1-406): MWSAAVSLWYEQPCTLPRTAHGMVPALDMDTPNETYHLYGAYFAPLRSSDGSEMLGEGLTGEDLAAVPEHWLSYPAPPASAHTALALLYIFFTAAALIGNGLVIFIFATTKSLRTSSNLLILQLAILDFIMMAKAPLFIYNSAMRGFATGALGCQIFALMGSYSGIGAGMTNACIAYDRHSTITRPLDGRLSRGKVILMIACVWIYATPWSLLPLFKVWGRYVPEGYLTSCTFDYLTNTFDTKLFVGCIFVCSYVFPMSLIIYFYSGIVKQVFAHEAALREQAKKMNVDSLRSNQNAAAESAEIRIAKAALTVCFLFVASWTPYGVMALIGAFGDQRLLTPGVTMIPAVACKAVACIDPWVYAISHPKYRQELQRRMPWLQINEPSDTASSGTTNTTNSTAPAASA
To be noted: covalent, 40 uM 11-cis-retinal.

The target in experiment [3] is T3, Eat-BRh1 (BRh1, Eat-B1) (Eumaeus atala, UniProt A0A7T3U8I9).
T3 sequence (A0A7T3U8I9 1-380): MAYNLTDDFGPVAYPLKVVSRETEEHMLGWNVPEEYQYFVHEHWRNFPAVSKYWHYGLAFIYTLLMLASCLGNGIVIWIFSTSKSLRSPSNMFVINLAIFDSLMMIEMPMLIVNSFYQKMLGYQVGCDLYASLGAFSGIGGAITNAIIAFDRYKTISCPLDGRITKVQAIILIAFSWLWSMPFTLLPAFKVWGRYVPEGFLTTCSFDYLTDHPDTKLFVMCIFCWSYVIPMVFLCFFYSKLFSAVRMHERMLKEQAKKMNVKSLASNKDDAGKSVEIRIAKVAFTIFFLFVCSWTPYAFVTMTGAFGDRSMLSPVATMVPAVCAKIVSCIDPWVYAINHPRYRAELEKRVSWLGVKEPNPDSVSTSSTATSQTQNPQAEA
The settings on record: covalent, 40 uM 11-cis-retinal.

Experiment [4] addresses T4, Eat-BRh2 (BRh2, Eat-B2) (Eumaeus atala, UniProt A0A7T3U8M8).
T4 sequence (A0A7T3U8M8 1-380): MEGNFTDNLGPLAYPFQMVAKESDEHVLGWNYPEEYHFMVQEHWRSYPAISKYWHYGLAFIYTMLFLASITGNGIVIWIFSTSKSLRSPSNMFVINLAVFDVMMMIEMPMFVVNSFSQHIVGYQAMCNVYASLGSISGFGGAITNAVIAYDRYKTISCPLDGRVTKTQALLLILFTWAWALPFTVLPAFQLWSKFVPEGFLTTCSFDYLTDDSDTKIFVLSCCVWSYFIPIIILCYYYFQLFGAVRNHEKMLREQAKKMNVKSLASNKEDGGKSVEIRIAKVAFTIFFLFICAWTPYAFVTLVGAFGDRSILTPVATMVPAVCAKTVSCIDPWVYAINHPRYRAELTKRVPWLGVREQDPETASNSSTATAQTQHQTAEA
To be noted: covalent, 40 uM 11-cis-retinal.

With `CC1=C(/C=C/C(C)=C/C=C\C(C)=C\C=O)C(C)(C)CCC1` [11-cis-retinal], the λmax stood at 569 ± 2 nm in experiment [1], 352 ± 3.5 nm in experiment [2], 435 ± 2 nm in experiment [3] and 500 ± 2 nm in experiment [4].

Values taken from paper doi:10.1101/2020.04.06.027102v2 (biorxiv, 2020).
